Laboratory results: patent US20220324835A1 (Nurix Therapeutics, Inc., priority 2018, published 2022)

What was measured:
T-cell [1] = assay: IL-2 secretion from T-cells co-stimulated with anti-CD3 and anti-CD28 antibody (Biological Example 2); assay type: cell-based, human; details: Homo sapiens, T-cell, read-out: IL-2 secretion Anti-CD3/Anti-CD28 stimulation; for fold induction at 0.3 µM: 0.3 μM Cbl-b inhibitor; for fold induction at 1 µM: 1 μM Cbl-b inhibitor; for fold induction at 4 µM: 4 μM Cbl-b inhibitor
Outline: (§1)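 No assay protocol given; T-cells stimulated with anti-CD3 alone or anti-CD3 plus anti-CD28, with or without Cbl-b inhibitor. Activation read as IL-2 secretion or CD25 surface staining, expressed as fold over baseline from uninhibited cells […].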

T-cell [2] = assay: IL-2 secretion from T-cells stimulated with anti-CD3 antibody alone (Biological Example 2); assay type: cell-based, human; details: T-cell, read-out: IL-2 secretion Anti-CD3 stimulation; for fold induction at 1 µM: 1 μM Cbl-b inhibitor; for fold induction at 8 µM: 8 μM Cbl-b inhibitor
T-cell [3] = assay: CD25 cell surface staining on T-cells stimulated with anti-CD3 antibody alone (Biological Example 2); assay type: cell-based, human; details: T-cell, read-out: CD25 staining Anti-CD3 stimulation; for fold induction at 1 µM: 1 μM Cbl-b inhibitor; for fold induction at 8 µM: 8 μM Cbl-b inhibitor
T-cell [4] = assay: CD25 cell surface staining on T-cells co-stimulated with anti-CD3 and anti-CD28 antibody (Biological Example 2); assay type: cell-based, human; details: Homo sapiens, T-cell, read-out: CD25 staining Anti-CD3/Anti-CD28 stimulation; for fold induction at 0.3 µM: 0.3 μM Cbl-b inhibitor; for fold induction at 1 µM: 1 μM Cbl-b inhibitor; for fold induction at 4 µM: 4 μM Cbl-b inhibitor
Outline: as §1

Cbl-b [5] = target: T1, Cbl-b (Homo sapiens, UniProt Q13191); assay: Cbl-b inhibition assay (Cbl-b activity assay, FRET, Biological Example 1; 100 mM NaCl, 60 nM Src kinase); assay type: biochemical; details: upper bound stated in text lists; read-out: IC50 values in the Cbl-b inhibition assay of Biological Example 1
Outline: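 Binding-based Cbl-b activity assay. Src-phosphorylated, N-terminally biotin-Avi-tagged Cbl-b recruits labelled UbcH5B-Ub, and proximity to streptavidin-terbium yields FRET.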

Cbl-b [6] = target: T1, Cbl-b; assay: Cbl-b activity assay (Cbl-b inhibition assay), TR-FRET of Cbl-b interaction with UbcH5B-Ub; assay type: biochemical
Outline: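 TR-FRET readout of Cbl-b binding to Bodipy-fluorescein N-terminally labeled Ub conjugated to UbcH5B C85K, measured with compound present. After compound incubation, 60 nM Src kinase with 1 mM ATP and 5 mM MgCl2 (final) was added for 1.5 h, then a further 1 h incubation; asterisked values used 50 mM NaCl buffer and 30 nM Src.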

[7] = fold change over baseline, primary human total T-cells
[8] = assay buffer with 100 mM NaCl, 60 nM Src kinase, read-out: Cbl-b activity IC50
[9] = fold change over baseline (anti-CD3/anti-CD28 stimulated T-cells without inhibitor)
[10] = Homo sapiens, fold change over baseline (anti-CD3/anti-CD28 stimulated T-cells without inhibitor)

T1 sequence (Q13191 36-427): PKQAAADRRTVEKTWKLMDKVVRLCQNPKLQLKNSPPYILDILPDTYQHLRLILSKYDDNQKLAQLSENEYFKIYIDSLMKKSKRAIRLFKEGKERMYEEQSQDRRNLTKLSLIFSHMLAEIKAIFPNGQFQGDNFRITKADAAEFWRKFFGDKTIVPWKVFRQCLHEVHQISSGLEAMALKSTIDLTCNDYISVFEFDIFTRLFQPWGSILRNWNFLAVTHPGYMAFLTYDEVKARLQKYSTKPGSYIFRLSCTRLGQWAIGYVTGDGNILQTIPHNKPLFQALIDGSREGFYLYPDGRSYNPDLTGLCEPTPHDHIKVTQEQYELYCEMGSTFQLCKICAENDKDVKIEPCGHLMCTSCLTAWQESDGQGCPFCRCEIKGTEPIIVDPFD

Structure (SMILES) | fold induction at 0.3 µM (T-cell [1]; [7]) | fold induction at 1 µM (T-cell [1]; [7]) | fold induction at 4 µM (T-cell [1]; [7]) | fold induction at 1 µM (T-cell [2]; [7]) | fold induction at 8 µM (T-cell [2]; [7]) | fold induction at 1 µM (T-cell [3]; [7]) | fold induction at 8 µM (T-cell [3]; [7]) | fold induction at 0.3 µM (T-cell [4]; [7]) | fold induction at 1 µM (T-cell [4]; [7]) | fold induction at 4 µM (T-cell [4]; [7]) | IC50 (Cbl-b [5]) [nM] | IC50 (Cbl-b [6]; [8]) [µM] | fold induction at 0.3 µM (T-cell [1]; [9]) | fold induction at 1 µM (T-cell [1]; [9]) | fold induction at 1 µM (T-cell [2]; [10]) | fold induction at 1 µM (T-cell [3]; [10]) | fold induction at 0.3 µM (T-cell [4]; [9]) | fold induction at 1 µM (T-cell [4]; [9]) | IC50 (Cbl-b [6]; * assay buffer containing 50 mM NaCl instead of 100 mM NaCl and 30 nM Src kinase instead of 60 nM, read-out: Cbl-b activity IC50 (μM)*) [µM]
C[C@H](Cc1nncn1C)c1cc(OC2COC2)nc(N2Cc3c(cccc3C(F)(F)F)C2=O)c1 [Compound 354, 2-{4-[(2R)-1-(4-methyl-4H-1,2,4-triazol-3-yl)propan-2-yl]-6-(oxetan-3-yloxy)pyridin-2-yl}-4-(trifluoromethyl)-2,3-dihydro-1H-isoindol-1-one] | 1.01 to 2.5 | 1.01 to 2.5 | 5 to 7.5 | 0.101 to 0.15 | > 0.201 | 0.601 to 0.8 | > 1 | 1.01 to 1.3 | 1.01 to 1.3 | 1.31 to 1.5 | ≤ 300 | 0.1 to 0.3 |  |  |  |  |  |  | 
Cn1cnnc1CC1(c2cccc(N3Cc4c(ccnc4C(F)(F)F)C3=O)c2)COC1 [Example 696, 2-(3-(3-((4-methyl-4H-1,2,4-triazol-3-yl)methyl)oxetan-3-yl)phenyl)-4-(trifluoromethyl)-2,3-dihydro-1H-pyrrolo[3,4-c]pyridin-1-one] |  |  |  |  |  |  |  |  |  |  | ≤ 100 | < 0.1 | 1.01 to 2.5 | 1.01 to 2.5 | < 0.05 | 0.601 to 0.8 | 1.01 to 1.3 | 1.01 to 1.3 | 
Cn1cnnc1CC1(c2cccc(N3Cc4c(cc(C(N5CCCC5)C(F)(F)F)cc4C(F)(F)F)C3=O)c2)COC1 (centres unmarked) [Example 581, 2-(3-(3-((4-Methyl-4H-1,2,4-triazol-3-yl)methyl)oxetan-3-yl)phenyl)-6-(2,2,2-trifluoro-1-(pyrrolidin-1-yl)ethyl)-4-(trifluoromethyl)isoindolin-1-one] |  |  |  |  |  |  |  |  |  |  | ≤ 100 | < 0.1 | 1.01 to 2.5 | 2.51 to 5 | 0.051 to 0.1 | 0.801 to 1 | 1.01 to 1.3 | 1.31 to 1.5 | 
COc1cccc(C(=O)Nc2cccc([C@H](C)Sc3nncn3C)c2)n1 [Compound 38, (S)-6-Methoxy-N-(3-(1-((4-methyl-4H-1,2,4-triazol-3-yl)thio)ethyl)phenyl)picolinamide] | 1.01 to 2.5 | 1.01 to 2.5 | 2.51 to 5 | 0.101 to 0.15 | 0.151 to 0.2 | < 0.6 | 0.601 to 0.8 | < 1 | < 1 | 1.31 to 1.5 | ≤ 1000 | 0.301 to 1 |  |  |  |  |  |  | 0.301 to 1
Cn1cnnc1C(F)(F)C1(c2cccc(N3Cc4c(cc(CN5CC(F)C5)cc4C(F)(F)F)C3=O)c2)COC1 [Example 679, 2-(3-(3-(difluoro(4-methyl-4H-1,2,4-triazol-3-yl)methyl)oxetan-3-yl)phenyl)-6-((3-fluoroazetidin-1-yl)methyl)-4-(trifluoromethyl)isoindolin-1-one] |  |  |  |  |  |  |  |  |  |  | ≤ 100 | < 0.1 | 2.51 to 5 | 5 to 7.5 | 0.101 to 0.15 | > 1 | 1.01 to 1.3 | 1.01 to 1.3 | 
Cn1cnnc1CC1(c2cccc(N3Cc4c(cc(N5CCOC5=O)cc4C(F)(F)F)C3=O)c2)COC1 [Example 561, 3-(2-(3-(3-((4-Methyl-4H-1,2,4-triazol-3-yl)methyl)oxetan-3-yl)phenyl)-3-oxo-7-(trifluoromethyl)isoindolin-5-yl)oxazolidin-2-one] |  |  |  |  |  |  |  |  |  |  | ≤ 100 | < 0.1 | 1.01 to 2.5 | 2.51 to 5 | < 0.05 | 0.601 to 0.8 | 1.01 to 1.3 | 1.01 to 1.3 | 
Cc1ccnn1CC(C)c1cccc(NC(=O)c2cccc(C(F)(F)F)n2)c1 (centres unmarked) [Compound 215, N-[3-[1-methyl-2-(5-methylpyrazol-1-yl)ethyl]phenyl]-6-(trifluoromethyl)pyridine-2-carboxamide] | < 1 | < 1 | 1.01 to 2.5 | 0.051 to 0.1 | 0.051 to 0.1 | < 0.6 | < 0.6 | 1.51 to 1.75 | 1.31 to 1.5 | 1.51 to 1.75 | ≤ 1000 | 0.301 to 1 |  |  |  |  |  |  | 
Cc1cc(C(=O)Nc2cccc(C3(Cc4nncn4C)COC3)c2)n2nc(C(F)(F)F)cc2n1 [Example 598, 5-Methyl-N-(3-(3-((4-methyl-4H-1,2,4-triazol-3-yl)methyl)oxetan-3-yl)phenyl)-2-(trifluoromethyl)pyrazolo[1,5-a]pyrimidine-7-carboxamide] |  |  |  |  |  |  |  |  |  |  | ≤ 300 | 0.1 to 0.3 | 1.01 to 2.5 | 1.01 to 2.5 | < 0.05 | 0.601 to 0.8 | 1.01 to 1.3 | 1.01 to 1.3 | 
C[C@H](Cc1nncn1C)c1cccc(NC(=O)c2ccnc3ccnn23)c1 [Compound 328, (R)-N-(3-(1-(4-Methyl-4H-1,2,4-triazol-3-yl)propan-2-yl)phenyl)pyrazolo[1,5-a]pyrimidine-7-carboxamide] | 1.01 to 2.5 | 1.01 to 2.5 | 2.51 to 5 | 0.051 to 0.1 | 0.101 to 0.15 | 0.801 to 1 | > 1 | 1.01 to 1.3 | 1.01 to 1.3 | 1.01 to 1.3 | ≤ 100 | < 0.1 |  |  |  |  |  |  | 
Cn1cnnc1CC1(c2cccc(N3Cc4c(cc(N5CC(C(F)F)C5)nc4C4CC4)C3=O)c2)COC1 [Example 609, 4-cyclopropyl-6-(3-(difluoromethyl)azetidin-1-yl)-2-(3-(3-((4-methyl-4H-1,2,4-triazol-3-yl)methyl)oxetan-3-yl)phenyl)-2,3-dihydro-1H-pyrrolo[3,4-c]pyridin-1-one] |  |  |  |  |  |  |  |  |  |  | ≤ 100 | < 0.1 | 2.51 to 5 | 5 to 7.5 | 0.101 to 0.15 | 0.801 to 1 | 1.01 to 1.3 | 1.01 to 1.3 | 
CC(c1cc2c(c(C3CC3)n1)CN(c1cccc(C3(Cc4nncn4C)COC3)c1)C2=O)N1CCCC1 (stereo not drawn) [Example 584, 4-Cyclopropyl-2-(3-(3-((4-methyl-4H-1,2,4-triazol-3-yl)methyl)oxetan-3-yl)phenyl)-6-(l-(pyrrolidin-1-yl)ethyl)-2,3-dihydro-1H-pyrrolo[3,4-c]pyridin-1-one] |  |  |  |  |  |  |  |  |  |  | ≤ 100 | < 0.1 | 1.01 to 2.5 | 2.51 to 5 | < 0.05 | 0.601 to 0.8 | 1.01 to 1.3 | 1.01 to 1.3 | 
Cn1cnnc1[C@H](F)C1(c2cccc(N3Cc4c(cc(CN5C6CCCC5CC6)cc4C(F)(F)F)C3=O)c2)COC1 [Example 675b, 6-((8-azabicyclo[3.2.1]octan-8-yl)methyl)-2-(3-(3-((R)-fluoro(4-methyl-4H-1,2,4-triazol-3-yl)methyl)oxetan-3-yl)phenyl)-4-(trifluoromethyl)isoindolin-1-one] |  |  |  |  |  |  |  |  |  |  | ≤ 100 | < 0.1 | > 7.5 | > 7.5 | > 0.201 | > 1 | 1.31 to 1.5 | 1.31 to 1.5 | 
